# Measurements reported in US10307413B2, “Tetrahydro- and dihydro-isoquinoline PRMT5 inhibitors and uses thereof” (Epizyme, Inc., priority 2013, dated 2019).
# Read-outs that look alike come from different tables or passages of the source.
# Assays:
# PRMT5/MEP50 = PRMT5/MEP50 (Homo sapiens (Human), UniProt O14744); experiment: PRMT5 Biochemical Assay (PRMT5/MEP50 enzyme assay on peptide substrate, 3H-SAM Flashplate)
# Outline: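 Radiometric methylation of a biotin-tagged H4(1-15) peptide by human PRMT5/MEP50 from baculovirus/Sf9, with ³H-SAM incorporation read on streptavidin Flashplates. Buffer: Bicine pH 7.6, TCEP, BSG, Tween20; compound preincubated 30 min at 25 °C; stopped with 600 µM final unlabeled SAM. DMSO and SAH controls; IC50 from fitted % inhibition.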
# [1] = test system: symmetric di-methyl arginine in Z-138 cells; experiment: Z-138 Methylation Assay (In Cell Western for symmetric di-methyl arginine and DNA content); assay type: cell-based; conditions: Homo sapiens, read-out: ICW EC50
# Outline: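 In-cell western: symmetric di-methyl arginine signal ratioed to DRAQ5 DNA content after 96 h compound exposure of Z-138 cells seeded at 50,000 cells/mL.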
# Z-138 cell line = experiment: Z-138 Proliferation Assay (Cell Titer Glo, 5 days); assay type: cell-based; conditions: Homo sapiens, read-out: Proliferation EC50
# Outline: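 Viability via CellTiter-Glo luminescence (ATP) after 5-day incubation at 37 °C, 5% CO2. Compounds tested in triplicate, nine 3-fold steps, highest final concentration 20 μM in 0.2% DMSO; 50% inhibitory concentration by 4-parameter fit of normalized curves.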
# [2] = 120 h, Z-138 cells, 5 days, Cell Titer Glo
# PRMT5/MEP50, sequence (O14744 other isoform, or with tags, fused parts or gaps): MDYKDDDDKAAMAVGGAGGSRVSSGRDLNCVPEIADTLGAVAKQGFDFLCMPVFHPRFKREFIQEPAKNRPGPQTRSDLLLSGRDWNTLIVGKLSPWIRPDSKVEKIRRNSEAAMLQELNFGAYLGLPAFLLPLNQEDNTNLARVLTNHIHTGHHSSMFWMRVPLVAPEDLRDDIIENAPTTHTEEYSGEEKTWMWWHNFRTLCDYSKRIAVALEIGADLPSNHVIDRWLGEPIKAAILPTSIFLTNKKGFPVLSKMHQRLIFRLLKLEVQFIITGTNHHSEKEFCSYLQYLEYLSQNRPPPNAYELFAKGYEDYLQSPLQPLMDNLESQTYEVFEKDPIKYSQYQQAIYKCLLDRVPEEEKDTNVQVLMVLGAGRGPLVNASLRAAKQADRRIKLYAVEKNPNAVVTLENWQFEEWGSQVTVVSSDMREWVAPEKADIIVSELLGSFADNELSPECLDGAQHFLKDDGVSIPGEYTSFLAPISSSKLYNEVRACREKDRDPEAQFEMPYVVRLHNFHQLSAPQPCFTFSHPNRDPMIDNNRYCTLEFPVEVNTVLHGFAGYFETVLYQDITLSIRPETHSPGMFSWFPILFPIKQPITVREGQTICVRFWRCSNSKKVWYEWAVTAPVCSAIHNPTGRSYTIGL
# PRMT5/MEP50, sequence (Q9BQA1 other isoform, or with tags, fused parts or gaps partner): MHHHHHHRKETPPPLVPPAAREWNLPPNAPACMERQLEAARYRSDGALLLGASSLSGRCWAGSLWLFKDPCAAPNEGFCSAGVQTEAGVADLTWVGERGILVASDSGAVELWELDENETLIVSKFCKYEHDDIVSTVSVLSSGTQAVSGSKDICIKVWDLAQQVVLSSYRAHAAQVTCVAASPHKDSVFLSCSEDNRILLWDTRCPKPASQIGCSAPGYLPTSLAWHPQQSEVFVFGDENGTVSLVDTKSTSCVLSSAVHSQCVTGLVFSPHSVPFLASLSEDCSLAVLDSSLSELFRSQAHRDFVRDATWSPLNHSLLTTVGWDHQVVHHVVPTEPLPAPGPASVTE
SMILES,IC50 (PRMT5/MEP50; PRMT5 biochemical assay),EC50 ([1]; In Cell Western methylation),IC50 (PRMT5/MEP50),EC50 [1],EC50 (Z-138 cell line; [2]),"EC50 (Z-138 cell line; 120 h, Z-138 cells, 5 days)","EC50 (Z-138 cell line; Z-138, 120 h)"
CS(=O)(=O)CCN1CCC(Nc2cc(C(=O)NC[C@H](O)CN3CCc4ccccc4C3)ncn2)CC1 [Compound 569],< 0.1 µM,< 0.1 µM,–,–,0.101 to 1 µM,–,–
N[C@H]1CC[C@@H](Nc2cc(C(=O)NC[C@H](O)CN3CCc4ccccc4C3)ncn2)CC1 [Compound 591],< 0.1 µM,< 0.1 µM,–,–,1 to 10 µM,–,–
CC1c2ccccc2CCN1C[C@@H](O)CNC(=O)c1cc(NC2COC2)ncn1 (stereo partly drawn) [Compound 573],0.101 to 1 µM,0.101 to 1 µM,–,–,> 5 µM,–,–
CNC(=O)[C@H]1C[C@H](Nc2cc(C(=O)NC[C@H](O)CN3CCc4ccccc4C3)ncn2)C1 [Compound 506],< 0.1 µM,< 0.1 µM,–,–,0.101 to 1 µM,–,–
CN(C)C(=O)CN1CCC(Nc2cc(C(=O)NC[C@H](O)CN3CCc4ccccc4C3)ncn2)CC1 [Compound 567],< 0.1 µM,< 0.1 µM,–,–,0.101 to 1 µM,–,–
CNCCOc1ccc(C(=O)NC[C@H](O)CN2CCc3ccccc3C2)cc1 [Compound 386],–,–,< 0.1 µM,< 0.1 µM,–,1 to 10 µM,–
CN(c1cc(C(=O)NC[C@H](O)CN2CCc3ccccc3C2)ncn1)C1COC1 [Compound 448],< 0.1 µM,> 1 µM,–,–,> 20 µM,–,–
CC(=O)N1CCC(Nc2cc(C(=O)NCC(O)C(C)N3CCc4ccccc4C3)ncn2)CC1 (stereo not drawn) [Compound 609],0.101 to 1 µM,> 1 µM,–,–,> 5 µM,–,–
CNCCOc1cc(C(=O)NC[C@H](O)CN2CCc3ccccc3C2)ccn1 [Compound 420],< 0.1 µM,< 0.1 µM,–,–,1 to 10 µM,–,–
O=C(NC[C@H](O)CN1CCc2ccccc2C1)c1ccc(OC2CCCNC2)cc1 (stereo partly drawn) [Compound 347],–,–,< 0.1 µM,< 0.1 µM,–,0.101 to 1 µM,–
CC(C)Cc1nc(NC2COC2)cc(C(=O)NC[C@H](O)CN2CCc3ccccc3C2)n1 [Compound 464],< 0.1 µM,< 0.1 µM,–,–,< 0.1 µM,–,–
NC(=O)c1ccc(C(=O)NCC(O)CN2CCc3ccccc3C2)cc1 (stereo not drawn) [Compound 22],–,–,0.101 to 1 µM,0.101 to 1 µM,–,> 20 µM,–
CCNCCCOc1ccc(C(=O)NC[C@H](O)CN2CCc3ccccc3C2)cc1 [Compound 396],–,–,< 0.1 µM,< 0.1 µM,–,1 to 10 µM,–
CN1CC(Nc2ccnc(C(=O)NC[C@H](O)CN3CCc4ccccc4C3)c2)C1 [Compound 575],< 0.1 µM,< 0.1 µM,–,–,> 5 µM,–,–
O=C(NC[C@H](O)CN1CCc2ccccc2C1)c1cc(NC2CNC2)nc(N2CCNCC2)n1 [Compound 453],< 0.1 µM,> 1 µM,–,–,> 20 µM,–,–
CC(=O)N[C@H]1CC[C@H](Nc2cc(C(=O)NC[C@H](O)CN3CCc4ccccc4C3)ncn2)CC1 [Compound 594],< 0.1 µM,< 0.1 µM,–,–,0.101 to 1 µM,–,–

SMILES,IC50 (PRMT5/MEP50; PRMT5 biochemical assay),EC50 ([1]; In Cell Western methylation),IC50 (PRMT5/MEP50),EC50 [1],EC50 (Z-138 cell line; [2]),"EC50 (Z-138 cell line; 120 h, Z-138 cells, 5 days)","EC50 (Z-138 cell line; Z-138, 120 h)"
"CC(=O)Nc1ccc(C(=O)NCC(O)CN2CCc3ccccc3C2)cc1 (stereo not drawn) [Compound 23, 4-acetamido-N-(3-(3,4-dihydroisoquinolin-2(1H)-yl)-2-hydroxypropyl)benzamide]",–,–,0.101 to 1 µM,0.101 to 1 µM,–,> 20 µM,–
O=C(NC[C@H](O)CN1CCc2ccccc2C1)c1cc(NC2COC2)nc(N2CCOCC2)n1 [Compound 395],–,–,< 0.1 µM,< 0.1 µM,–,< 0.1 µM,–
CC(NC(=O)c1cc(NC2CCN(C)CC2)ncn1)C(O)CN1CCc2ccccc2C1 (stereo not drawn) [Compound 535],0.101 to 1 µM,0.101 to 1 µM,–,–,> 5 µM,–,–
O=C(NC[C@H](O)CN1CCc2ccccc2C1)c1cc(N[C@H]2C[C@H](C(=O)N3CCC3)C2)ncn1 [Compound 509],< 0.1 µM,< 0.1 µM,–,–,< 0.1 µM,–,–
O=C(NC[C@H](O)CN1CCc2ccccc2C1)c1ccc(OCCN2CCCCC2)cc1 [Compound 371],–,–,< 0.1 µM,< 0.1 µM,–,1 to 10 µM,–
CC(=O)N1CCC(Nc2cc(C(=O)NCC(F)CN3CCc4ccccc4C3)ncn2)CC1 (stereo not drawn) [Compound 656],0.101 to 1 µM,0.101 to 1 µM,–,–,> 5 µM,–,–
CN(C)CCCOc1ccc(C(=O)NC[C@H](O)CN2CCc3ccccc3C2)cc1 [Compound 345],–,–,< 0.1 µM,< 0.1 µM,–,0.101 to 1 µM,–
CCS(=O)(=O)CCN1CCC(Nc2cc(C(=O)NC[C@H](O)CN3CCc4ccccc4C3)ncn2)CC1 [Compound 640],< 0.1 µM,< 0.1 µM,–,–,–,–,0.101 to 1 µM
NC(=O)[C@H]1CC[C@H](Nc2cc(C(=O)NC[C@H](O)CN3CCc4ccccc4C3)ncn2)CC1 [Compound 601],< 0.1 µM,< 0.1 µM,–,–,0.101 to 1 µM,–,–
CCC(=O)N1CC(Nc2cc(C(=O)NC[C@H](O)CN3CCc4ccccc4C3)ncn2)C1 [Compound 574],< 0.1 µM,< 0.1 µM,–,–,< 0.1 µM,–,–
CC(=O)N1CC(Nc2cc(C(=O)NC[C@H](O)CN3CCc4ccccc4C3C)ncn2)C1 (stereo partly drawn) [Compound 583],< 0.1 µM,< 0.1 µM,–,–,1 to 10 µM,–,–
CC(C)N1CCN(c2nc(NC3CNC3)cc(C(=O)NC[C@H](O)CN3CCc4ccccc4C3)n2)CC1 [Compound 500],< 0.1 µM,0.101 to 1 µM,–,–,10 to 50 µM,–,–
O=C(NC[C@H](O)CN1CCc2ccccc2C1)c1cc(NC2CNC2)nc(C(F)(F)F)n1 [Compound 456],< 0.1 µM,0.101 to 1 µM,–,–,0.101 to 1 µM,–,–
Cc1cnc(NC2CNC2)cc1C(=O)NC[C@H](O)CN1CCc2ccccc2C1 [Compound 341],–,–,< 0.1 µM,> 1 µM,–,> 20 µM,–
CC(=O)N1CCC(Nc2cc(C(=O)NCCCN3CCc4ccccc4C3)ncn2)CC1 [Compound 653],< 0.1 µM,< 0.1 µM,–,–,1 to 10 µM,–,–

# Further lines, with some results ahead:
IC50 (PRMT5/MEP50; PRMT5 biochemical assay),EC50 ([1]; In Cell Western methylation),IC50 (PRMT5/MEP50),EC50 [1],SMILES,EC50 (Z-138 cell line; [2]),"EC50 (Z-138 cell line; 120 h, Z-138 cells, 5 days)","EC50 (Z-138 cell line; Z-138, 120 h)"
< 0.1 µM,< 0.1 µM,–,–,COc1cc(C(=O)NC[C@H](O)CN2CCc3ccccc3C2)cc(NC2CCN(C(C)=O)CC2)n1 [Compound 627],< 0.1 µM,–,–
0.101 to 1 µM,> 1 µM,–,–,O=C(NC[C@H](O)CN1CCc2ccccc2C1)C1=CC2=N[C@H](CO)CN2C=N1 [Compound 548],> 5 µM,–,–
–,–,< 0.1 µM,< 0.1 µM,CC(C)NCCCOc1ccc(C(=O)NC[C@H](O)CN2CCc3ccccc3C2)cc1 [Compound 374],–,1 to 10 µM,–
< 0.1 µM,< 0.1 µM,–,–,CC(=O)N1CCC(Nc2cc(C(=O)NC[C@H](O)CN3CCc4ccccc4C3)cc(N(C)C)n2)CC1 [Compound 610],< 0.1 µM,–,–
0.101 to 1 µM,0.101 to 1 µM,–,–,CC(=O)N1CCC(Nc2cc(C(=O)NC[C@H](O)CN3CCc4ccccc4C3(C)C)ncn2)CC1 [Compound 606],> 5 µM,–,–
–,–,0.101 to 1 µM,< 0.1 µM,CN(C[C@H](O)CN1CCc2ccccc2C1)C(=O)c1ccnc(NC2CCOCC2)c1 [Compound 357],–,1 to 10 µM,–
< 0.1 µM,< 0.1 µM,–,–,CC(NC(=O)c1cc(NC2CCN(C(=O)C3CC3)CC2)ncn1)C(O)CN1CCc2ccccc2C1 (stereo not drawn) [Compound 552],0.101 to 1 µM,–,–
< 0.1 µM,< 0.1 µM,–,–,CO[C@H]1CC[C@@H](Nc2cc(C(=O)NC[C@H](O)CN3CCc4ccccc4C3)ncn2)CC1 [Compound 624],< 0.1 µM,–,–
–,–,< 0.1 µM,< 0.1 µM,CC(=O)N1CC(Nc2cc(C(=O)NC[C@H](O)CN3CCc4ccccc4C3)c(C)cn2)C1 [Compound 380],–,0.101 to 1 µM,–
< 0.1 µM,< 0.1 µM,–,–,CC(C)C(=O)N1CCC(Nc2cc(C(=O)NC[C@H](O)CN3CCc4ccccc4C3)ncn2)CC1 [Compound 408],< 0.1 µM,–,–
< 0.1 µM,0.101 to 1 µM,–,–,CN1CCC(Nc2cc(C(=O)NC[C@H](O)CN3CCc4ccccc4C3)cnn2)C1 (stereo partly drawn) [Compound 689],> 5 µM,–,–
< 0.1 µM,< 0.1 µM,–,–,O=C(NC[C@H](O)CN1CCc2ccccc2C1)c1cc(N[C@H]2C[C@@H](C(=O)N3CCC3)C2)ncn1 [Compound 517],0.101 to 1 µM,–,–
1 to 10 µM,> 1 µM,–,–,CC(O)(CNC(=O)c1cc(NC2CCNCC2)ncn1)CN1CCc2ccccc2C1 (stereo not drawn) [Compound 647],> 5 µM,–,–
< 0.1 µM,< 0.1 µM,–,–,CC(=O)N1CCC[C@H](Nc2cc(C(=O)NC[C@H](O)CN3CCc4ccccc4C3)ncn2)C1 [Compound 572],0.101 to 1 µM,–,–
0.101 to 1 µM,0.101 to 1 µM,–,–,COC(CNC(=O)c1cc(NC2CN(C(C)=O)C2)ncn1)CN1CCc2ccccc2C1 (stereo not drawn) [Compound 690],> 5 µM,–,–
–,–,0.101 to 1 µM,0.101 to 1 µM,"NS(=O)(=O)c1ccc(C(=O)NCC(O)CN2CCc3ccccc3C2)cc1 (stereo not drawn) [Compound 21, N-(3-(3,4-dihydroisoquinolin-2(1H)-yl)-2-hydroxypropyl)-4-sulfamoylbenzamide]",–,> 20 µM,–
< 0.1 µM,0.101 to 1 µM,–,–,CC(C)CN1CC(Nc2cc(C(=O)NC[C@H](O)CN3CCc4ccccc4C3)ncn2)C1 [Compound 438],1 to 10 µM,–,–
< 0.1 µM,< 0.1 µM,–,–,CC(=O)N1CCC(Nc2cc(C(=O)NC[C@H](O)CN3CCc4cccc(C)c4C3)ncn2)CC1 [Compound 664],0.101 to 1 µM,–,–
< 0.1 µM,< 0.1 µM,–,–,CC(=O)N1CCC(Nc2cc(C(=O)NC[C@H](O)CN3CCc4cc(C)ccc4C3)ncn2)CC1 [Compound 675],0.101 to 1 µM,–,–
